Measured values taken from patent US12552854B2, “Peptides that block presentation of antigenic islet peptides by HLA-DQ8 and methods for treating type-1 diabetes” (Icahn School of Medicine at Mount Sinai, priority 2019, dated 2026).
“Also recorded” adds a separate entry of the source.

Assays:
[1] = target: T1, recombinant HLA-DQ8 protein (Homo sapiens, UniProt P01909+P01920); experiment: DELFIA immunoassay: inhibition of biotinylated InsB:9-23 binding to recombinant HLA-DQ8
T1 construct: contained the extracellular portion of the DQA1*0301 α chain fused to the coiled-coil region of the basic leucine zipper domain of Fos; contained the extracellular portion of the DQB1*0302 β chain fused to the coiled-coil region of the basic leucine zipper domain of JunB; Fos leucine zipper (coiled-coil region) (C); TEV protease site (internal); His6; JunB leucine zipper (coiled-coil region) (C); FLAG; host or cells: baculovirus system
Description: HLA-DQ8 protein was produced using the baculovirus system. Two constructs were designed for both the α and the β chains of HLA-DQ8. The β chain construct contained the extracellular portion of the DQB1*0302 β chain fused to the coiled-coil region of the basic leucine zipper domain of JunB, and the α chain construct contained the extracellular portion of the DQA1*0301 α chain fused to the coiled-coil region of the basic leucine zipper domain of Fos. […] A tobacco etch virus protease cutting site was introduced in each chain to allow removal of the dimerization motif. The JunB and Fos dimerization motifs were added in order to allow the α and β chains to dimerize and form the final HLA-DQ8 protein (FIG. 12A). These constructs were used to produce the HLA-DQ8 protein in a baculovirus system using the Life Technologies Baculovirus protein production custom services (Carlsbad, CA).
D-peptides were produced by Fisher Scientific (Hanover Park, IL) in dry form and dissolved in PBS. All D-peptides were screened at a concentration of 10 μM for their ability to bind to the HLA-DQ8 pocket and block it from binding the InsB:9-23 peptide using a unique immunoassay (23). […] After washing 4 times, DELFIA Europium-labeled streptavidin (PerkinElmer) diluted in DELFIA assay buffer (PerkinElmer) was added for 30 minutes and shaken at slow speed at room temperature. Since the InsB:9-23 peptide was biotinylated the complex HLA-DQ8-InsB:9-23 peptide could be detected using the Europium-labeled streptavidin. After washing for 6 times, DELFIA Enhancement Solution was added for 1 hour or until the optimal signal was reached. Time-resolved fluorescence was measured using the BMG reader (BMG Labtech, Cary, NC). The experiment was performed in triplicate. As a negative control biotinylated InsB:9-23 peptide that was not pre-incubated with HLA-DQ8 was added to the nickel coated plates.
Immunoassay was performed as described above.

[2] = Pharmacokinetics of RI-CT in male CD-1 mice; details: mouse, in vivo
Procedure: 30 μL of each STD, QC sample and matrix for blanks was added to separate wells of a 96 well plate. 800 μL of water:MeOH (95:5, v/v) was added to the STDs, QCs and blanks. For study samples, 400 μL of water:MeOH (95:5, v/v) was added to each. Mouse whole blood samples were diluted 1:2 with 0.1% formic acid in an aqueous 25 mM EDTA solution when samples were collected; consequently, there was an initial dilution factor of 3. Additionally, 400 μL of water:MeOH (95:5, v/v) was added to each diluted sample. To all samples, 20 μL of internal standard (200 ng/mL tolbutamide) solution in water was added. The samples were vortexed vigorously for 5 minutes and then loaded onto a pre-conditioned Oasis HLB 96-well SPE plate. The Oasis HLB 96-well SPE plate was conditioned with 1 mL of methanol and then rinsed with 1 mL of water before the samples were loaded. Once loaded onto the Oasis HLB 96-well SPE plate, residual solution was removed by vacuum. The samples were eluted into a clean 96-well plate with 800 μL of ACN: 0.1% aqueous formic acid (70:30, v/v). The samples were evaporated to dryness under nitrogen at ambient temperature using a TurboVap 96 Concentration Workstation (Caliper Life Sciences). The residues were reconstituted in 150 μL of ACN: 0.1% aqueous formic acid (25:75, v/v) and 10 μL of 0.1 M TCEP. The samples were vortexed for approximately 10 minutes and then aliquots were injected for LC-MS/MS analysis.
• LC System: System #731 • HPLC Pump: Shimadzu LC-30AD • Autosampler: Shimadzu SIL-30AC MP HPLC Conditions: • Mobile Phase A=0.1% Aqueous Formic Acid • Mobile Phase B=0.1% Formic Acid in ACN • Column Temperature=Ambient • Injection Volume=8 μL • Column=ACE C8, 2.1×50 mm, 5 μm • Flow rate=0.6 mL/min • MS/MS System: System #730 • SCIEX API 5500 Triple Quad (S/N 213451604) MS Conditions: • Scan Type=MRM • Polarity=Positive • Ion Source=ESI • CAD=10 • CUR=20 • GS1/GS2=50/50 • IS=2500 • TEM=550

[3] = target: T2, HLA-DQ8 expressed on BSM cells (Homo sapiens, UniProt P01909+P01920, F237L); experiment: Flow cytometric analysis of InsB:9-23 peptide binding to BSM cells; type: cell-based; details: 10 μM peptide; flow cytometry
T2 construct: BSM cells that express HLA-DQ8 on their surface; host or cells: BSM cells (B-cell line homozygous for HLA-DQ8)
Procedure: N-terminal biotinylated peptide InsB:9-23 (or gliadin) were used to test for binding to BSM cells that express HLA-DQ8 on their surface. APC-streptavidin (BD Biosciences, Franklin Lakes, NJ) were used to detect the biotinylated peptides. […] After 24 hours incubation, cells were stained with PE-mouse anti-human HLA-DQ8 (BD Biosciences) and APC-streptavidin to detect the percent binding of the peptide to BSM cells with or without D-peptides. Percent binding was analyzed by flow cytometry.

[4] = test system: PBMCs isolated from DQ8 positive T1D patients; experiment: Cytokine production in PBMCs from DQ8 positive recent-onset T1D patients; type: cell-based, human; details: stimulated with InsB:9-23 for 48 h; all peptides at 50 μg/ml
Description: Subjects with a diagnosis of T1D within the previous 2 years were recruited from the Pediatric Endocrine clinic at Children Hospital at Montefiore and from the adult Endocrine clinics at Montefiore and Mount Sinai Hospitals (New York). Peripheral blood mononuclear cells (PBMCs) were isolated from heparinized blood using Ficoll-Paque (GE Healthcare); freshly isolated PBMCs were used for T-cell activation studies and for genotyping. DNA purified from the blood of the patients was typed for HLA-DQ as previously described (32). PBMCs isolated from DQ8 positive patients were seeded in 96 well plates with 200 μl medium (RPMI, 10% FBS). […] The stimulated PBMCs were assessed for cytokine production and T-cell proliferation as described above for mouse splenocytes. DQ8 typed patients with long standing T1D (>10 years) were used as negative controls in the experiments (no T-cell responses to islet peptides).

T2 sequence (P01920 33-261 A45G/Y58L/E77G/D89A/H199R/T217I, other chains not shown): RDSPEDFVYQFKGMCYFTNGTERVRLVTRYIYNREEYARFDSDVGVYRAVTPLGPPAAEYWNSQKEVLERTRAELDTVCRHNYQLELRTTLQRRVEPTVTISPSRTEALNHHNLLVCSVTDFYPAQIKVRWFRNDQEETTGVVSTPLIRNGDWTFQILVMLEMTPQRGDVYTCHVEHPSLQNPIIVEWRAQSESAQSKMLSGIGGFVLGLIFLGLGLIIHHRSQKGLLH

CC(C)C[C@@H](NC(=O)[C@@H](Cc1ccc(O)cc1)NC(=O)[C@@H](CC(C)C)NC(=O)[C@H](NC(=O)[C@@H](CS)NC(=O)CNC(=O)[C@@H](CCC(=O)O)NC(=O)[C@@H](CCCNC(=N)N)NC(=O)CNC(=O)CN)C(C)C)C(=O)N[C@H](C)C(=O)N[C@H](CCC(=O)O)C(=O)N[C@@H](C(=O)NCC(=O)NCC(=O)O)C(C)C [RI-CT]
inhibition of InsB:9-23 binding to HLA-DQ8 (in words) ([1]; D-peptides screened at 10 μM, recombinant HLA-DQ8): significant inhibition
dose dependence of the inhibition of InsB:9-23 binding to HLADQ8 ([1]; serially diluted to 0.5 μM, FIG. 3D): dose-dependent
clearance ([2]; iv, 10 mg/kg): 27 mL/min/kg
half-life ([2]; iv, 10 mg/kg): 7.46 h
AUC(0-inf) ([2]; sc, 10 mg/kg): 4140 ng·h/mL
Cmax ([2]; sc, 10 mg/kg): 5120 ng/mL
Tmax ([2]; sc, 10 mg/kg): 0.77 h
bioavailability ([2]; sc, 10 mg/kg): 47%
half-life ([2]; sc, 10 mg/kg): 6.02 h
Vd ([2]; IV, single dose of 10 mg/kg, whole blood, read-out: volume of distribution): 6.9 L/kg
inhibition of the binding of InsB:9-23 to DQ8 expressed on BSM cells (in words) [3]: inhibits the binding
IFN-γ production, PBMCs of DQ8 positive T1D patients [4]: significantly suppressed; also recorded: significantly decreased
IL-2 production, PBMCs of DQ8 positive T1D patients [4]: significantly suppressed; also recorded: significantly decreased
